The text below walks through data of patent US20250122192A1, “5-PYRIMIDINECARBOXAMIDE DERIVATIVES AND METHODS OF USING THE SAME” (Rgenta Therapeutics, Inc., priority 2021, published 2025).

The IC50 is the point on the concentration scale where inhibition reaches its midpoint.

Molecules are shown by their SMILES. Counter-ions that a name gives are not always drawn.

The subject of the first test is PMS1. The test is described as follows: Mini-gene reporter assay-PMS1. The class given is cell-based. Conditions: Homo sapiens, HEK293, PMS1 mini-gene firefly luciferase reporter transiently transfected into HEK293 cells; read-out: PMS1 IC50. Summed up: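 Compound dilution series in duplicate added to transiently transfected HEK293 reporter cells, then incubated; EC50 from Levenberg-Marquardt fit of luminescence. The reporter joins the alternatively skipped exon, its neighbouring introns and exons to firefly luciferase, so induced inclusion gives more signal.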
Background: In a reporter assay the amount or activity of a reporter protein is the signal.
Turning to `CCOc1nc(N2CC[C@@H](NC)C2)ncc1C(=O)Nc1cc(F)c2nn(C)cc2c1` [Compound 282, (R)-4-ethoxy-N-(7-fluoro-2-methyl-2H-indazol-5-yl)-2-(3-(methylamino)pyrrolidin-1-yl)pyrimidine-5-carboxamide formate], the IC50 was < 500 nM. As for `CCOc1nc(N2CCC(NC)C2)ncc1C(=O)Nc1cc(OC)c2nc(C)cn2c1` (stereo not drawn) [Compound 283, 4-ethoxy-N-(8-methoxy-2-methylimidazo[1,2-a]pyridin-6-yl)-2-(3-(methylamino)pyrrolidin-1-yl)pyrimidine-5-carboxamide formate], the IC50 was < 500 nM. `CCN(c1ncc(C(=O)Nc2cc(F)c3nn(C)cc3c2)c(OC)n1)C1CCNCC1` [Compound 284, 2-(ethyl(piperidin-4-yl)amino)-N-(7-fluoro-2-methyl-2H-indazol-5-yl)-4-methoxypyrimidine-5-carboxamide formate]: the 50% inhibitory concentration (IC50) is < 500 nM.

Take `CCOc1nc(N2CC[C@H](NC)C2)ncc1C(=O)Nc1ccc2nn(C)cc2c1` [Compound 285, (S)-4-ethoxy-N-(2-methyl-2H-indazol-5-yl)-2-(3-(methylamino)pyrrolidin-1-yl)pyrimidine-5-carboxamide 2,2,2-trifluoroacetate]: the half-maximal inhibitory concentration (IC50) is 1000 to 3000 nM. Still for that read-out and setting: in the case of `CCOc1nc(N2CC[C@@H](NC)C2)ncc1C(=O)Nc1ccc2nn(C)cc2c1` [Compound 286, (R)-4-ethoxy-N-(2-methyl-2H-indazol-5-yl)-2-(3-(methylamino)pyrrolidin-1-yl)pyrimidine-5-carboxamide formate] it was 500 to 1000 nM. Still for that read-out and setting: next, `CCOc1nc(N2CCC(NC)C2)ncc1C(=O)Nc1cnc2nc(C)cn2c1` (stereo not drawn) [Compound 287, 4-ethoxy-2-(3-(methylamino)pyrrolidin-1-yl)-N-(2-methylimidazo[1,2-a]pyrimidin-6-yl)pyrimidine-5-carboxamide fomate]: 1000 to 3000 nM; `CCOc1nc(N2CC[C@@H](NC)C2)ncc1C(=O)Nc1ccc2nc(C)cn2c1` [Compound 289, (R)-4-ethoxy-2-(3-(methylamino)pyrrolidin-1-yl)-N-(2-methylimidazo[1,2-a]pyridin-6-yl)pyrimidine-5-carboxamide formate]: 1000 to 3000 nM; `CCOc1nc(N2CC[C@@H](N(C)C)C2)ncc1C(=O)Nc1cc(F)c2nc(C)cn2c1` [Compound 290, (R)-2-(3-(dimethylamino)pyrrolidin-1-yl)-4-ethoxy-N-(8-fluoro-2-methylimidazo[1,2-a]pyridin-6-yl)pyrimidine-5-carboxamide 4-methylbenzenesulfonate]: 1000 to 3000 nM. As for `CCOc1nc(N2CC[C@H](N(C)C)C2)ncc1C(=O)Nc1cc(F)c2nn(C)cc2c1` [Compound 291, (S)-2-(3-(dimethylamino)pyrrolidin-1-yl)-4-ethoxy-N-(7-fluoro-2-methyl-2H-indazol-5-yl)pyrimidine-5-carboxamide formate], the IC50 was > 3000 nM. Regarding `CCOc1nc(N2CC[C@@H](N(C)C)C2)ncc1C(=O)Nc1cc(F)c2nn(C)cc2c1` [Compound 292, (R)-2-(3-(dimethylamino)pyrrolidin-1-yl)-4-ethoxy-N-(7-fluoro-2-methyl-2H-indazol-5-yl)pyrimidine-5-carboxamide formate], the IC50 lay within 1000 to 3000 nM. Still for that read-out and setting: next, `CCOc1nc(N2CC[C@H](NC)C2)ncc1C(=O)Nc1ccc2nc(C)cn2c1` [Compound 293, (S)-4-ethoxy-2-(3-(methylamino)pyrrolidin-1-yl)-N-(2-methylimidazo[1,2-a]pyridin-6-yl)pyrimidine-5-carboxamide formate]: > 3000 nM.

For `CCOc1nc(N2CC[C@H](N(C)C)C2)ncc1C(=O)Nc1cc(F)c2nc(C)cn2c1` [Compound 294, (S)-2-(3-(dimethylamino)pyrrolidin-1-yl)-4-ethoxy-N-(8-fluoro-2-methylimidazo[1,2-a]pyridin-6-yl)pyrimidine-5-carboxamide formate], the concentration for half-maximal inhibition (IC50) is > 3000 nM. With `CCOc1nc(N2CC[C@@H](NC)C2)ncc1C(=O)Nc1cc(OC)c2nn(C)cc2c1` [Compound 295, (R)-4-ethoxy-N-(7-methoxy-2-methyl-2H-indazol-5-yl)-2-(3-(methylamino)pyrrolidin-1-yl)pyrimidine-5-carboxamide 4-methylbenzenesulfonate], the IC50 lay within 500 to 1000 nM.

For the molecule `CCOc1nc(N2CCNC3(CC3)C2)ncc1C(=O)Nc1cc(F)c2nc(C)cn2c1` [Compound 296, 4-ethoxy-N-(8-fluoro-2-methylimidazo[1,2-a]pyridin-6-yl)-2-(4,7-diazaspiro[2.5]octan-7-yl)pyrimidine-5-carboxamide 2,2,2-trifluoroacetate], the IC50 is > 3000 nM.

As to `CCOc1nc(N2CC[C@H](CNC)C2)ncc1C(=O)Nc1cc(F)c2nc(C)cn2c1` [Compound 297, (R)-4-ethoxy-N-(8-fluoro-2-methylimidazo[1,2-a]pyridin-6-yl)-2-(3-((methylamino)methyl)pyrrolidin-1-yl)pyrimidine-5-carboxamide 4-methylbenzenesulfonate], the IC50 was < 500 nM. Consider `CCOc1nc(N2CC[C@H](NC)C2)ncc1C(=O)Nc1cc(OC)c2nn(C)cc2c1` [Compound 298, (S)-4-ethoxy-N-(7-methoxy-2-methyl-2H-indazol-5-yl)-2-(3-(methylamino)pyrrolidin-1-yl)pyrimidine-5-carboxamide 4-methylbenzenesulfonate], for which the concentration for half-maximal inhibition (IC50) lay within 1000 to 3000 nM.

On to `CCOc1nc(N2CCNC3(CC3)C2)ncc1C(=O)Nc1cc(F)c2nn(C)cc2c1` [Compound 299, 4-ethoxy-N-(7-fluoro-2-methyl-2H-indazol-5-yl)-2-(4,7-diazaspiro[2.5]octan-7-yl)pyrimidine-5-carboxamide formate], for which the IC50 was > 3000 nM. The same measure, in the same setting: in the case of `CCOc1nc(N2CCC(CN(C)C)CC2)ncc1C(=O)Nc1cc(F)c2nc(C)cn2c1` [Compound 300, 2-(4-((dimethylamino)methyl)piperidin-1-yl)-4-ethoxy-N-(8-fluoro-2-methylimidazo[1,2-a]pyridin-6-yl)pyrimidine-5-carboxamide formate] it was 1000 to 3000 nM. `CCCOc1nc(N2CCNCC2)ncc1C(=O)Nc1cc(F)c2nn(C)cc2c1` [Compound 301, N-(7-fluoro-2-methyl-2H-indazol-5-yl)-2-(piperazin-1-yl)-4-propoxypyrimidine-5-carboxamide]: the IC50 lay in the range of 1000 to 3000 nM. Same read-out and setting: in the case of `Cn1cc2cc(NC(=O)c3cnc(N4CCNCC4)nc3OCC(F)F)cc(F)c2n1` [Compound 302, 4-(2,2-difluoroethoxy)-N-(7-fluoro-2-methyl-2H-indazol-5-yl)-2-(piperazin-1-yl)pyrimidine-5-carboxamide] it was > 3000 nM; in that of `CCOc1nc(N2CCC3(CC2)CN(C)C3)ncc1C(=O)Nc1cc(F)c2nc(C)cn2c1` [Compound 303, 4-ethoxy-N-(8-fluoro-2-methylimidazo[1,2-a]pyridin-6-yl)-2-(2-methyl-2,7-diazaspiro[3.5]nonan-7-yl)pyrimidine-5-carboxamide], 500 to 1000 nM.

Regarding `CCOc1nc(N2CC[C@@H](CNC)C2)ncc1C(=O)Nc1cc(F)c2nc(C)cn2c1` [Compound 304, (S)-4-ethoxy-N-(8-fluoro-2-methylimidazo[1,2-a]pyridin-6-yl)-2-(3-((methylamino)methyl)pyrrolidin-1-yl)pyrimidine-5-carboxamide 4-methylbenzenesulfonate], the half-inhibitory concentration (IC50) is 500 to 1000 nM. On to `CCOc1nc(N2CC[C@@H](CN(C)C)C2)ncc1C(=O)Nc1cc(F)c2nc(C)cn2c1` [Compound 305, (S)-2-(3-((dimethylamino)methyl)pyrrolidin-1-yl)-4-ethoxy-N-(8-fluoro-2-methylimidazo[1,2-a]pyridin-6-yl)pyrimidine-5-carboxamide formate], for which the IC50 lay in the range of 500 to 1000 nM.

For the molecule `CC(C)COc1nc(N2CCNCC2)ncc1C(=O)Nc1cc(F)c2nn(C)cc2c1` [Compound 306, N-(7-fluoro-2-methyl-2H-indazol-5-yl)-4-isobutoxy-2-(piperazin-1-yl)pyrimidine-5-carboxamide formate], the IC50 was 1000 to 3000 nM. As to `CCOc1nc(N2CCNCC2)ncc1C(=O)Nc1cc2cn(C)nc2c(F)c1C` [Compound 307, 4-ethoxy-N-(7-fluoro-2,6-dimethyl-2H-indazol-5-yl)-2-(piperazin-1-yl)pyrimidine-5-carboxamide hydrochloride], the IC50 lay in the range of 1000 to 3000 nM.

Staying with this test, now noted: Homo sapiens, HEK293, read-out: PMS1% Effect at 5 μM.
Take `CCOc1nc(N2CCNCC2)ncc1C(=O)Nc1cn2cc(C)nc2cc1F` [Compound 308, 4-ethoxy-N-(7-fluoro-2-methylimidazo[1,2-a]pyridin-6-yl)-2-(piperazin-1-yl)pyrimidine-5-carboxamide formate]: the activation at 5 µM is > 75%.

Staying with this test, now noted: Homo sapiens, HEK293, read-out: PMS1 IC50 (nM).
On to `CCOc1nc(N(CC)C2CCNCC2)ncc1C(=O)Nc1ccn2nc(C)cc2c1` [Compound 288, 4-ethoxy-2-(ethyl(piperidin-4-yl)amino)-N-(2-methylpyrazolo[1,5-a]pyridin-5-yl)pyrimidine-5-carboxamide formate], for which the IC50 is 500 to 1000 nM.

Still in this test, the particulars now being: Homo sapiens; at 5 μM; PMS1 mini-gene firefly luciferase reporter in HEK293 cells; read-out: PMS1% Effect at 5 μM.
For the molecule `CCOc1nc(N2CC[C@@H](NC)C2)ncc1C(=O)Nc1ccn2nc(C)cc2c1` [Compound 313, 4-ethoxy-2-[(3R)-3-(methylamino)pyrrolidin-1-yl]-N-2-methylpyrazolo[1,5-a]-pyridin-5-ylpyrimidine-5-carboxamide], the activation at 5 µM was > 75%. Same read-out and setting: next, `CCOc1nc(N2CC[C@H](NC)C2)ncc1C(=O)Nc1ccn2nc(C)cc2c1` [Compound 314, 4-ethoxy-2-[(3S)-3-(methylamino)pyrrolidin-1-yl]-N-2-methylpyrazolo[1,5-a]-pyridin-5-ylpyrimidine-5-carboxamide]: > 75%.

For `CCOc1nc(C2=CCNC2)ncc1C(=O)Nc1cc(F)c2nc(C)cn2c1` [Compound 315, 2-(2,5-dihydro-1H-pyrrol-3-yl)-4-ethoxy-N-8-fluoro-2-methylimidazo[1,2-a]-pyridin-6-ylpyrimidine-5-carboxamide], the activation at 5 µM is > 75%.
